The supplement of paper PMC10733146

Experiments:
Assay in all cases: viability relative to DMSO control (fraction); higher = less drug effect (more viable cells)
Details in all cases: 48 h
[1] = tested on: primary ALL patient cells (S048)
Summary of the method: (§1)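 Viability is given as CellTiter-Glo luminescence relative to the median of 16 inner DMSO wells. Fresh or cryopreserved primary mononuclear tumour cells from blood, bone marrow (both Ficoll-isolated) or processed lymph node were plated at 4 × 10^4 cells per well in 384-well plates against five pre-plated compound concentrations, one well each. Incubation lasted 48 h at 37 °C and 5% CO2 in RPMI-1640 with penicillin/streptomycin, L-glutamine and human serum.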

[2] = tested on: primary AML patient cells (S002)
Summary of the method: as §1

[3] = tested on: primary AML patient cells (S012)
Summary of the method: as §1

[4] = tested on: primary AML patient cells (S017)
Summary of the method: as §1

[5] = tested on: primary AML patient cells (S019)
Summary of the method: as §1

[6] = tested on: primary AML patient cells (S037)
Summary of the method: as §1

[7] = tested on: primary AML patient cells (S056)
Summary of the method: as §1

[8] = tested on: primary AML patient cells (S071)
Summary of the method: as §1

[9] = tested on: primary AML patient cells (S072)
Summary of the method: as §1

[10] = tested on: primary AML patient cells (S079)
Summary of the method: as §1

[11] = tested on: primary AML patient cells (S085)
Summary of the method: as §1

[12] = tested on: primary AML patient cells (S089)
Summary of the method: as §1

[13] = tested on: primary AML patient cells (S091)
Summary of the method: as §1

[14] = tested on: primary BL patient cells (S005)
Summary of the method: as §1

[15] = tested on: primary CLL patient cells (S031)
Summary of the method: as §1

[16] = tested on: primary CLL patient cells (S043)
Summary of the method: as §1

[17] = tested on: primary FL patient cells (S022)
Summary of the method: as §1

[18] = tested on: primary MCL patient cells (S053)
Summary of the method: as §1

[19] = tested on: primary MCL patient cells (S068)
Summary of the method: as §1

Nc1cccc2c1CN(C1CCC(=O)NC1=O)C2=O (stereo not given) [Lenalidomide]
viability ([1]; 0.008 µM): 0.895
viability ([1]; 0.04 µM): 0.751
viability ([1]; 0.2 µM): 0.609
viability ([1]; 1 µM): 0.548
viability ([1]; 5 µM): 0.488
viability ([2]; 0.008 µM): 0.904
viability ([2]; 0.04 µM): 0.949
viability ([2]; 0.2 µM): 0.757
viability ([2]; 1 µM): 0.698
viability ([2]; 5 µM): 0.713
viability ([3]; 0.008 µM): 0.913
viability ([3]; 0.04 µM): 0.956
viability ([3]; 0.2 µM): 0.874
viability ([3]; 1 µM): 0.946
viability ([3]; 5 µM): 0.981
viability ([4]; 0.008 µM): 1.03
viability ([4]; 0.04 µM): 0.976
viability ([4]; 0.2 µM): 0.982
viability ([4]; 1 µM): 0.963
viability ([4]; 5 µM): 0.986
viability ([5]; 0.008 µM): 1.07
viability ([5]; 0.04 µM): 0.828
viability ([5]; 0.2 µM): 0.761
viability ([5]; 1 µM): 0.863
viability ([5]; 5 µM): 0.71
viability ([6]; 0.008 µM): 1.03
viability ([6]; 0.04 µM): 1.31
viability ([6]; 0.2 µM): 0.912
viability ([6]; 1 µM): 1.03
viability ([6]; 5 µM): 0.867
viability ([7]; 0.008 µM): 1.04
viability ([7]; 0.04 µM): 1.24
viability ([7]; 0.2 µM): 0.961
viability ([7]; 1 µM): 0.98
viability ([7]; 5 µM): 0.84
viability ([8]; 0.008 µM): 0.864
viability ([8]; 0.04 µM): 0.563
viability ([8]; 0.2 µM): 0.386
viability ([8]; 1 µM): 0.321
viability ([8]; 5 µM): 0.295
viability ([9]; 0.008 µM): 1.12
viability ([9]; 0.04 µM): 1.14
viability ([9]; 0.2 µM): 1.1
viability ([9]; 1 µM): 1.13
viability ([9]; 5 µM): 1.15
viability ([10]; 0.008 µM): 1.02
viability ([10]; 0.04 µM): 1.02
viability ([10]; 0.2 µM): 1.08
viability ([10]; 1 µM): 1.08
viability ([10]; 5 µM): 1.08
viability ([11]; 0.008 µM): 0.956
viability ([11]; 0.04 µM): 0.688
viability ([11]; 0.2 µM): 0.572
viability ([11]; 1 µM): 0.524
viability ([11]; 5 µM): 0.529
viability ([12]; 0.008 µM): 0.916
viability ([12]; 0.04 µM): 0.727
viability ([12]; 0.2 µM): 0.724
viability ([12]; 1 µM): 0.559
viability ([12]; 5 µM): 0.737
viability ([13]; 0.008 µM): 1.09
viability ([13]; 0.04 µM): 1.1
viability ([13]; 0.2 µM): 1.11
viability ([13]; 1 µM): 0.943
viability ([13]; 5 µM): 1.1
viability ([14]; 0.008 µM): 0.943
viability ([14]; 0.04 µM): 1.29
viability ([14]; 0.2 µM): 1.22
viability ([14]; 1 µM): 0.897
viability ([14]; 5 µM): 1.12
viability ([15]; 0.008 µM): 1.09
viability ([15]; 0.04 µM): 1.08
viability ([15]; 0.2 µM): 1.08
viability ([15]; 1 µM): 1.04
viability ([15]; 5 µM): 1.01
viability ([16]; 0.008 µM): 1.1
viability ([16]; 0.04 µM): 1.07
viability ([16]; 0.2 µM): 1.08
viability ([16]; 1 µM): 1.05
viability ([16]; 5 µM): 1.05
viability ([17]; 0.008 µM): 0.956
viability ([17]; 0.04 µM): 0.99
viability ([17]; 0.2 µM): 0.97
viability ([17]; 1 µM): 1
viability ([17]; 5 µM): 1.05
viability ([18]; 0.008 µM): 1.13
viability ([18]; 0.04 µM): 0.965
viability ([18]; 0.2 µM): 0.862
viability ([18]; 1 µM): 0.817
viability ([18]; 5 µM): 0.688
viability ([19]; 0.008 µM): 1.02
viability ([19]; 0.04 µM): 0.803
viability ([19]; 0.2 µM): 0.832
viability ([19]; 1 µM): 0.764
viability ([19]; 5 µM): 0.736

CC(C)c1cc(C(=O)N2Cc3ccc(CN4CCN(C)CC4)cc3C2)c(O)cc1O [Onalespib]
viability ([1]; 0.0032 µM): 0.877
viability ([1]; 0.016 µM): 0.847
viability ([1]; 0.08 µM): 0.477
viability ([1]; 0.4 µM): 0.574
viability ([1]; 2 µM): 0.432
viability ([2]; 0.0032 µM): 0.837
viability ([2]; 0.016 µM): 0.691
viability ([2]; 0.08 µM): 0.333
viability ([2]; 0.4 µM): 0.292
viability ([2]; 2 µM): 0.302
viability ([3]; 0.0032 µM): 0.973
viability ([3]; 0.016 µM): 1.02
viability ([3]; 0.08 µM): 0.657
viability ([3]; 0.4 µM): 0.139
viability ([3]; 2 µM): 0.15
viability ([4]; 0.0032 µM): 0.93
viability ([4]; 0.016 µM): 1.11
viability ([4]; 0.08 µM): 0.675
viability ([4]; 0.4 µM): 0.33
viability ([4]; 2 µM): 0.281
viability ([5]; 0.0032 µM): 0.594
viability ([5]; 0.016 µM): 1.1
viability ([5]; 0.08 µM): 0.265
viability ([5]; 0.4 µM): 0.57
viability ([5]; 2 µM): 0.371
viability ([6]; 0.0032 µM): 0.914
viability ([6]; 0.016 µM): 0.992
viability ([6]; 0.08 µM): 0.887
viability ([6]; 0.4 µM): 0.962
viability ([6]; 2 µM): 0.916
viability ([7]; 0.0032 µM): 0.743
viability ([7]; 0.016 µM): 0.29
viability ([7]; 0.08 µM): 0.142
viability ([7]; 0.4 µM): 0.164
viability ([7]; 2 µM): 0.174
viability ([8]; 0.0032 µM): 0.847
viability ([8]; 0.016 µM): 0.379
viability ([8]; 0.08 µM): 0.149
viability ([8]; 0.4 µM): 0.169
viability ([8]; 2 µM): 0.168
viability ([9]; 0.0032 µM): 0.919
viability ([9]; 0.016 µM): 1.02
viability ([9]; 0.08 µM): 0.486
viability ([9]; 0.4 µM): 0.422
viability ([9]; 2 µM): 0.38
viability ([10]; 0.0032 µM): 0.872
viability ([10]; 0.016 µM): 0.888
viability ([10]; 0.08 µM): 0.555
viability ([10]; 0.4 µM): 0.381
viability ([10]; 2 µM): 0.322
viability ([11]; 0.0032 µM): 0.928
viability ([11]; 0.016 µM): 0.942
viability ([11]; 0.08 µM): 0.334
viability ([11]; 0.4 µM): 0.233
viability ([11]; 2 µM): 0.237
viability ([12]; 0.0032 µM): 1.17
viability ([12]; 0.016 µM): 0.872
viability ([12]; 0.08 µM): 0.234
viability ([12]; 0.4 µM): 0.235
viability ([12]; 2 µM): 0.173
viability ([13]; 0.0032 µM): 1.14
viability ([13]; 0.016 µM): 0.967
viability ([13]; 0.08 µM): 0.733
viability ([13]; 0.4 µM): 0.304
viability ([13]; 2 µM): 0.234
viability ([14]; 0.0032 µM): 1.56
viability ([14]; 0.016 µM): 1.32
viability ([14]; 0.08 µM): 1.42
viability ([14]; 0.4 µM): 0.756
viability ([14]; 2 µM): 0.792
viability ([15]; 0.0032 µM): 0.896
viability ([15]; 0.016 µM): 0.929
viability ([15]; 0.08 µM): 0.432
viability ([15]; 0.4 µM): 0.235
viability ([15]; 2 µM): 0.246
viability ([16]; 0.0032 µM): 0.987
viability ([16]; 0.016 µM): 1.1
viability ([16]; 0.08 µM): 0.811
viability ([16]; 0.4 µM): 0.585
viability ([16]; 2 µM): 0.395
viability ([17]; 0.0032 µM): 0.868
viability ([17]; 0.016 µM): 0.943
viability ([17]; 0.08 µM): 0.705
viability ([17]; 0.4 µM): 0.781
viability ([17]; 2 µM): 0.757
viability ([18]; 0.0032 µM): 0.837
viability ([18]; 0.016 µM): 1.12
viability ([18]; 0.08 µM): 0.356
viability ([18]; 0.4 µM): 0.345
viability ([18]; 2 µM): 0.306
viability ([19]; 0.0032 µM): 1.04
viability ([19]; 0.016 µM): 1.44
viability ([19]; 0.08 µM): 0.814
viability ([19]; 0.4 µM): 0.497
viability ([19]; 2 µM): 0.419
